# Data reported in patent publication US8822432B2, “Equol production accelerating composition” (Unitika Ltd., priority 2006, dated 2014).
# Tested on: equol production in the intestines
# Assay: Equol production accelerating effect in rats: equol concentration in blood plasma after 5 weeks of sample-mixed feed
# Format: in vivo, SD rats
# Details: week 5
# Excerpt: Calcium lactobionate (manufactured by Sigma Aldrich) was mixed with a rat powder feed (CRF-1, manufactured by Oriental Yeast Co., Ltd.) to a concentration of 0, 0.5 or 3.0% by weight. Also, as comparative controls, a 1.5% by weight difructose-dianhydride III (DFA-III) (manufactured by Wako Pure Chemical Industries, Ltd)-mixed powder feed and a 1.5% by weight fructo-oligosaccharide (FOS) (manufactured by Wako Pure Chemical Industries, Ltd)-mixed powder feed were used.
# Acclimatization rearing of 3 animals per group of 5-week-old SD rats (manufactured by Clea Japan, Inc.) was carried out for 1 week by allowing to freely ingest the powder feed CRF-1 and water. The time of completion of the acclimatization rearing was regarded as the […] Starting from the week 0, respective groups were allowed to freely ingest the calcium lactobionate-mixed powder feed prepared in the above. The control groups were allowed to ingest a general powder feed.
# The conjugated soybean isoflavone presenting in the rat blood plasma was converted into its free state using β-glucuronidase, and then equol was measured using an LC/MS/MS system. As the instruments for analysis, HP1100 Series, Agilent Technologies, was used in the LC, and Quattro-Ultima, Micromass was used in the MS/MS. […]
structure (smiles),measurement,setting,value
"O=C([O-])[C@H](O)[C@@H](O)[C@H](O[C@@H]1O[C@H](CO)[C@H](O)[C@H](O)[C@H]1O)[C@H](O)CO.O=C([O-])[C@H](O)[C@@H](O)[C@H](O[C@@H]1O[C@H](CO)[C@H](O)[C@H](O)[C@H]1O)[C@H](O)CO.[Ca+2] [calcium lactobionate, Calcium lactobionate]","equol concentration in blood plasma, times of the control group","calcium lactobionate-mixed powder feed (0.5 or 3.0% by weight), free ingestion",2 to 3 times of the control group
same,equol concentration in blood plasma compared to the DFA-III and fructo-oligosaccharide,mixed powder feed,high
